The values that follow come from patent US7638509B2, “Diene compounds and formulations” (priority 2003, dated 2009).

Residue numbers refer to the chain shown, from its start.

In one assay the target is T1, mutant AR (Homo sapiens, UniProt P10275, T878A).
T1 construct: LNCaP without transfection; endogenous in cells; host or cells: LNCaP
T1 sequence (P10275 1-920 T878A): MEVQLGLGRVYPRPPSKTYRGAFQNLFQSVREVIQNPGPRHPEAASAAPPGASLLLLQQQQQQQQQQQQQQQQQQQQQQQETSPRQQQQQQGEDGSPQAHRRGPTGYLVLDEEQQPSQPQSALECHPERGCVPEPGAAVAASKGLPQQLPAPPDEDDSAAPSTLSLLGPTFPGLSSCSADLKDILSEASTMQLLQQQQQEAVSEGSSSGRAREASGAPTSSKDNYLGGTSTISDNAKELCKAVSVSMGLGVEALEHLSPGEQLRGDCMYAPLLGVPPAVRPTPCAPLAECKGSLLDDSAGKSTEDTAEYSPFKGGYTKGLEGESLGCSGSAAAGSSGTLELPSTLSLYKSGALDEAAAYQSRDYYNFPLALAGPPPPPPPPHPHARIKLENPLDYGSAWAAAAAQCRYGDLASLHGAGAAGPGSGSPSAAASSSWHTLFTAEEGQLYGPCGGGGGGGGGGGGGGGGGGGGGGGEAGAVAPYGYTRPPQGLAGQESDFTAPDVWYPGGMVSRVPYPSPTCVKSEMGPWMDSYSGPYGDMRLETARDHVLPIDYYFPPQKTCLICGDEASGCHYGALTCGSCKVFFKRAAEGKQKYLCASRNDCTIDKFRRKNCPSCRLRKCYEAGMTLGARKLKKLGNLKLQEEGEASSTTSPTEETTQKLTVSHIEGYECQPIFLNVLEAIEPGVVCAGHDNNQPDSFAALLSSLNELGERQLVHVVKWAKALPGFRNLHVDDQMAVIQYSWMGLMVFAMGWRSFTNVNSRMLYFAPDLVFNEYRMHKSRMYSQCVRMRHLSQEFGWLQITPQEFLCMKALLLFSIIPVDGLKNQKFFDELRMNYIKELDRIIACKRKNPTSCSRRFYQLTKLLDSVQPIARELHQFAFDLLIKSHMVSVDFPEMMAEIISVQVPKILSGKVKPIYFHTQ
In words: AR transcription, MMTV-Luc reporter in LNCaP cells. The assay is classed as cell-based. The procedure:
(§1) Cell Culture, Transfection, and Reporter Gene Assay. The human prostate cancer cell lines, LNCaP, PC-3, and DU145, and non-prostate cancer cell line COS-1 were maintained in RPMI or Dulbecco's modified Eagle's medium (DMEM) (Life Technologies) supplemented with 10% fetal bovine serum (FBS). […] Briefly, cells seeded to reach a density of 50-60% confluence in 12 well tissue culture plates were transfected with 1.5 μg of DNA according to “SuperFect transfection” instructions (Qiagen). After 2-3 h incubation, cells were treated with medium supplemented with charcoal-stripped FBS containing either ethanol or ligands for 24 h. The cells were then harvested and whole cell extracts were used for Luc assay. The Luc activity was determined using a Dual-Luciferase Reporter Assay System (Promega) and luminometer.
(§2) The pSG5-AR was co-transfected in COS-1 cells. […] Values were obtained from the mean±SD of at least three determinations. DU145 cells were transfected with the pSG5-AR and MMTV-Luc in the presence or absence of pSG5-ARA70. […] Values were obtained for the mean±SD of at least three determinations.

Assay [1] concerns the target T2, wild-type AR (Homo sapiens, UniProt P10275).
T2 sequence (P10275 1-920): T1 sequence (P10275 1-920 T878A) with A878T
As to the kind of experiment: Competitive [3H]-R1881 ligand binding assay, extracts of COS-1 transfected with wild-type AR. As to conditions: 1 nM [3H]-R1881, unlabeled ligand 1-10,000 nM, relative to DHT. Also noted: expressed in transfected cells; host or cells: COS-1. Here is the method: (§3) Ligand Binding Assay. Whole cell extracts from COS-1 with transient transfection of pSG5-AR, or LNCaP without transfection, were incubated for 2 h at 37° C. with 1 nM [^3H]-synthetic androgen methyltrienolone (R1881) in the presence and absence of increasing concentrations (1-10,000 nM) of unlabeled ligands. Then, hydroxyapatite (Bio-Rad) was added and stirred for 15 min at 4° C. After centrifugation and washing, radioactivity was determined by scintillation counting.
(§4) Clinically available antiandrogens have an affinity for the AR, allowing a competition with androgens for binding. To determine whether ADEK has this common feature of AR antagonists, the competitive androgen binding assay was performed.

In assay [2] the target is T3, AR (Homo sapiens, UniProt P10275, T878A).
T3 construct: LNCaP without transfection; endogenous in cells; host or cells: LNCaP
T3 sequence (P10275 1-920 T878A): T1 sequence (P10275 1-920 T878A)
In words: Competitive [3H]-R1881 ligand binding assay, LNCaP whole cell extracts. As to conditions: 1 nM [3H]-R1881, unlabeled ligand 1-10,000 nM, relative to DHT. Here is the method:
as §3, §4

The target in assay [3] is T3, AR. In words: Adiol-induced AR transcription, MMTV-Luc in LNCaP cells. The assay is classed as cell-based. As to conditions: 2.5 nM Adiol, compound at 1 μM. The procedure:
(§5) Cell Culture, Transfection, and Reporter Gene Assay. The human prostate cancer cell lines, LNCaP, PC-3, and DU145, and non-prostate cancer cell line COS-1 were maintained in RPMI or Dulbecco's modified Eagle's medium (DMEM) (Life Technologies) supplemented with 10% fetal bovine serum (FBS). Transfections and luciferase (Luc) assays were performed as previously described (Miyamoto, H., Yeh, S., Wilding, G. & Chang, C. (1998) Proc. Natl. Acad. Sci. USA 95, 7379-7384; Miyamoto, H., Rahman, M., Takatera, H., Kang, H.-Y., Yeh, S., Chang, H.-C., Nishimura, K., Fujimoto, N. & Chang, C. (2002) J. Biol. Chem. 277, 4609-4617). Briefly, cells seeded to reach a density of 50-60% confluence in 12 well tissue culture plates were transfected with 1.5 μg of DNA according to “SuperFect transfection” instructions (Qiagen). After 2-3 h incubation, cells were treated with medium supplemented with charcoal-stripped FBS containing either ethanol or ligands for 24 h. The cells were then harvested and whole cell extracts were used for Luc assay. The Luc activity was determined using a Dual-Luciferase Reporter Assay System (Promega) and luminometer.
(§6) Effect of ADEK on AR Transcription. […] (set as 100%). Values were obtained from the mean±SD of at least three determinations.

The next assay concerns PSA. As to the kind of experiment: PSA expression in LNCaP cells, Western blot. Type of assay: cell-based, human. As to conditions: 48 h, 1 nM DHT or 1 μM HF, casodex, ADEK in absence of DHT. A general note: Immunoblotting shows a protein as a band on a membrane.
Assay [4] addresses T2, wild-type AR. In words: AR transcription, MMTV-Luc reporter in COS-1 cells co-transfected with pSG5-AR. As to conditions: COS-1, 1 nM DHT. Also noted: expressed in transfected cells; host or cells: COS-1. Type of assay: cell-based. Here is the method: as §1, §2
Assay [5] addresses T2, wild-type AR. As to the kind of experiment: Adiol-induced AR transcription, MMTV-Luc in PC-3 cells with pSG5-AR. Conditions: PC-3, 2.5 nM Adiol, compound at 1 μM. The assay is classed as cell-based. Also noted: expressed in transfected cells; host or cells: PC-3. Here is the method:
as §5, §6

Procedure for PSA: Western Blot. […] An antibody for -actin (Santa Cruz Biotechnology) was used as the internal control. Blots were quantitated by Collage software (Fotodyne).
The 33-kDa protein was quantitated. β-Actin expression was used as an internal control. […] The mean±SD of three separate experiments was determined. […] Total cell number was counted by hemocytometer. The mean of at least three determinations was determined.

Take `CC(C)(O)C(=O)Nc1ccc([N+](=O)[O-])c(C(F)(F)F)c1` [HF, hydroxyflutamide, reference compound]: the “suppression of DHT-induced mutant AR transcription (in words)” value at mutant AR (10 μM) is reported as “no suppression”. At mutant AR (MMTV-Luc, HF at 10 μM), the “agonist / androgenic activity on mutant AR transcription (in words)” value is “full agonist”. On wild-type AR [1], the “RBA in COS-1 with AR” value is listed as 17.1. For the same compound, the “RBA in LNCaP” value on AR [2] stood at 23.0. In addition, the “block of Adiol-induced AR transcription (in words)” value on AR [3] and at wild-type AR [5] was “failed to significantly block” each time. Besides, the “endogenous PSA expression over mock treatment” value in the assay on PSA stood at 3.5 fold. Further, on wild-type AR [4], the “suppression of DHT-induced wild-type AR transcription compared with ADEK at 1 μM (21%), in words” value is on record as “similar”.
